Assay results as given in ChEMBL document CHEMBL1149926, “Synthesis of 7-substituted androstenediones by a 1,4-conjugate addition approach” (Bioorg Med Chem Lett, 1995).

Molecular target: T1, Aromatase (Homo sapiens, UniProt P11511)
T1 sequence (P11511 whole entry): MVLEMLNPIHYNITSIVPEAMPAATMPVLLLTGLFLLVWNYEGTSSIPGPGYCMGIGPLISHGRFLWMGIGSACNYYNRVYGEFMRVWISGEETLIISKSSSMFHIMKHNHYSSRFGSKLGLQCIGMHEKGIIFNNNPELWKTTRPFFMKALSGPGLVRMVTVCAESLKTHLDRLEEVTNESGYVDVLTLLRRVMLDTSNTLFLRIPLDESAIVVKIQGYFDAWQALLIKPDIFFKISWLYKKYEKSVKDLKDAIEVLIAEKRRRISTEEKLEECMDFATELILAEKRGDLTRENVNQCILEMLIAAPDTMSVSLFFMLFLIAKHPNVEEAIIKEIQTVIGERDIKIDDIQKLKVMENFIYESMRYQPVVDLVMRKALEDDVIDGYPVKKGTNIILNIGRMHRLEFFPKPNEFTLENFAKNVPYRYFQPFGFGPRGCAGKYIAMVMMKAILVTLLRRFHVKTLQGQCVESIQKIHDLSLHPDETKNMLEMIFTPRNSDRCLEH
Assay: Inhibition of aromatase cytochrome P450 19A1

Compound | Ki [µM]
C[C@]12C=CC(=O)C=C1C[C@@H](Sc1ccc(N)cc1)[C@@H]1[C@@H]2CC[C@]2(C)C(=O)CC[C@@H]12 | 0.01
C[C@]12CCC(=O)C=C1C[C@@H](CCc1ccccc1)[C@@H]1[C@@H]2CC[C@]2(C)C(=O)CC[C@@H]12 | 0.0165
C[C@]12CCC(=O)C=C1C[C@@H](Cc1ccccc1)[C@@H]1[C@@H]2CC[C@]2(C)C(=O)CC[C@@H]12 | 0.0131
